These results are taken from ChEMBL document CHEMBL1949553, “Microbial transformation of deoxyandrographolide and their inhibitory activity on LPS-induced NO production in RAW 264.7 macrophages” (Bioorg Med Chem Lett, 2012).

One series has as its system RAW264.7. Nature of the series: Antiinflammatory activity in mouse RAW264.7 cells assessed as inhibition of LPS-induced NO production after 24 hrs by Griess method. The series is classed as functional, cell-based. The settings on record: RAW264.7, 24 h. (In general: The Griess reaction detects nitrite, a stable product of nitric oxide.)
Series [1] in a line: Cytotoxicity against mouse RAW264.7 cells assessed as cell viability at 100 uM after 24 hrs by MTT assay. It is filed as cell-based. The conditions noted are these: read-out: Activity.

For orientation: IC50 means the concentration at which inhibition is half-maximal. Consider `C[C@@]12CCC(=O)[C@@](C)(CO)[C@H]1CC[C@@]1(CO1)[C@H]2CCC1=CCOC1=O`, for which the IC50 in the series with RAW264.7 was found to be 89.2 µM. Further, the viability at 24 h, 100 µM in series [1] was 63.1%.

Take `C=C1CC[C@H]2[C@@](C)(CCC(=O)[C@@]2(C)CO)[C@@H]1CCC1=CCOC1=O`: the half-maximal inhibitory concentration (IC50) in the series on RAW264.7 was 10.1 µM. The viability at 24 h, 100 µM in series [1] was 110%.

As to `C=C1CC[C@@H]2[C@](C)(CO)[C@H](O)CC[C@@]2(C)[C@@H]1CCC1=CCOC1=O` [DEOXYANDROGRAPHOLIDE], the IC50 in the series on RAW264.7 stood at 21 µM. In addition, the viability at 24 h, 100 µM in series [1] was found to be 100%.

For `C=C1CC[C@H]2[C@@](C)(C=CC(=O)[C@@]2(C)CO)[C@@H]1CCC1=CCOC1=O`, the 50% inhibitory concentration (IC50) in the series with RAW264.7 is 10 µM. For the same compound, the viability at 24 h, 100 µM in series [1] is 100%.

`C=C1CC[C@@H]2[C@](C)(CO)[C@H](O)CC[C@@]2(C)[C@@H]1C/C=C1/C(=O)OC[C@H]1O` [ANDROGRAPHOLIDE]: in the series with RAW264.7, the IC50 is 6.96 µM. The viability at 24 h, 100 µM in series [1] is 49.6%.

In the case of `C=C1[C@@H](CCC2=CCOC2=O)[C@]2(C)CC[C@@H](O)[C@@](C)(CO)[C@H]2C[C@@H]1O`, in the series on RAW264.7, the IC50 is greater than 100 µM. Besides, the viability at 24 h, 100 µM in series [1] stood at 89.1%.

For `C[C@@]12CCC(=O)[C@@](C)(CO)[C@H]1CCC(CO)=C2CCC1=CCOC1=O`, the 50% inhibitory concentration (IC50) with RAW264.7 was determined as 79 µM. Moreover, the viability at 24 h, 100 µM in series [1] turned out to be 101%.

With `C=C1CC[C@H]2[C@@](C)([C@H](O)CC(=O)[C@@]2(C)CO)[C@@H]1CCC1=CCOC1=O`, the IC50 in the series on RAW264.7 is 61.9 µM. Moreover, in series [1], the viability at 24 h, 100 µM came out at 100%.

As to `CO[C@]1(CO)CC[C@@H]2[C@](C)(CO)[C@H](O)CC[C@@]2(C)[C@@H]1CCC1=CCOC1=O`, the IC50 in the series with RAW264.7 was greater than 100 µM. In addition, the viability at 24 h, 100 µM in series [1] came to 100%.

Regarding `CN(C)c1ccc(O)c2c1C[C@H]1C[C@H]3[C@H](N(C)C)C(O)=C(C(N)=O)C(=O)[C@@]3(O)C(O)=C1C2=O` [MINOCYCLINE], the IC50 in the series with RAW264.7 came out at 34.9 µM. Besides, the viability at 24 h, 100 µM in series [1] stood at 100%.

For the compound `C=C1CC[C@@H]2[C@](C)(CO)[C@H](O)CC[C@@]2(C)[C@@H]1C/C=C(/C(=O)O)[C@@H](O)CO`, the IC50 in the series with RAW264.7 was greater than 100 µM. Besides, the viability at 24 h, 100 µM in series [1] was found to be 104%.

Consider `C[C@]1(CO)[C@H]2CC[C@@]3(CO3)[C@@H](CCC3=CCOC3=O)[C@]2(C)CC[C@H]1O`, for which the concentration for half-maximal inhibition (IC50) in the series on RAW264.7 is greater than 100 µM. The viability at 24 h, 100 µM in series [1] stood at 88.4%.

For the compound `C=C1CC[C@H]2[C@@](C)(C[C@H](O)C(=O)[C@@]2(C)CO)[C@@H]1CCC1=CCOC1=O`, in the series on RAW264.7, the IC50 amounted to 12.2 µM. Further, the viability at 24 h, 100 µM in series [1] stood at 103%.

For the compound `C=C1CC[C@@H]2[C@](C)(CO)[C@H](O)CC[C@@]2(C)[C@]1(O)CCC1=CCOC1=O`, the IC50 in the series with RAW264.7 is greater than 100 µM. Also, the viability at 24 h, 100 µM in series [1] stood at 86%.

As for `C[C@@]1(CO)[C@H](O)CC[C@@]2(C)C(CCC3=CCOC3=O)=C(C=O)CC[C@H]12`, in the series on RAW264.7, the IC50 is greater than 100 µM. Further, the viability at 24 h, 100 µM in series [1] was 99.7%.

`C=C1CC[C@@H]2[C@](C)(CO)[C@H](O)C[C@@H](O)[C@@]2(C)[C@@H]1CCC1=CCOC1=O`: the IC50 in the series on RAW264.7 is greater than 100 µM. Further, the viability at 24 h, 100 µM in series [1] is 101%.

For `C=C1CC[C@@H]2[C@](C)(CO)[C@H](O)CC[C@@]2(C)[C@@H]1C/C=C1/C(=O)OC[C@@H]1O`, in the series with RAW264.7, the IC50 is 26.5 µM. Also, the viability at 24 h, 100 µM in series [1] is 65.2%.

On to `C=C1CC[C@H]2[C@@](C)(CCC(=O)[C@@]2(C)CO)[C@@H]1/C=C/C1=CCOC1=O`, for which the concentration for half-maximal inhibition (IC50) in the series with RAW264.7 turned out to be 75.3 µM. Moreover, the viability at 24 h, 100 µM in series [1] came out at 104%.

With `C[C@]1(CO)[C@H]2CC=C(CO)[C@@H](/C=C/C3=CCOC3=O)[C@]2(C)CC[C@H]1O`, the IC50 in the series on RAW264.7 was determined as 39.1 µM. Besides, the viability at 24 h, 100 µM in series [1] stood at 106%.

In the case of `C=C1CC[C@@H]2[C@](C)(CO)CCC[C@@]2(C)[C@@H]1CCC1=CCOC1=O` [ANDROGRAPANIN], in the series on RAW264.7, the IC50 came out at 11.6 µM. Further, the viability at 24 h, 100 µM in series [1] came out at 99.8%.

For `C=C1[C@H](O)C[C@H]2[C@@](C)(CCC(=O)[C@@]2(C)CO)[C@@H]1CCC1=CCOC1=O`, the IC50 in the series on RAW264.7 is 58.2 µM. Further, the viability at 24 h, 100 µM in series [1] was 102%.

`C=C1CC[C@@H]2[C@](C)(COC3O[C@H](CO)[C@@H](O)[C@H](O)[C@H]3O)CCC[C@@]2(C)[C@@H]1CCC1=CCOC1=O` (some centres not stated): in the series on RAW264.7, the concentration for half-maximal inhibition (IC50) is greater than 100 µM. Also, the viability at 24 h, 100 µM in series [1] was found to be 81.4%.

On to `C=C1CC[C@@H]2[C@](C)(CO)[C@H](O)CC[C@@]2(C)[C@]1(O)/C=C/C1=CCOC1=O`, for which the IC50 in the series with RAW264.7 is 97.2 µM. For the same compound, the viability at 24 h, 100 µM in series [1] was found to be 98.6%.

As to `C[C@@]1(CO)[C@H](O)CC[C@@]2(C)C(CCC3=CCOC3=O)=C(CO)CC[C@H]12`, in the series with RAW264.7, the IC50 is greater than 100 µM. In addition, the viability at 24 h, 100 µM in series [1] turned out to be 91.1%.

`C=C1CC[C@@H]2[C@](C)(CO)C(=O)CC[C@@]2(C)[C@]1(O)CCC1=CCOC1=O`: the IC50 in the series on RAW264.7 amounted to 28.4 µM. In addition, the viability at 24 h, 100 µM in series [1] stood at 87.5%.

Turning to `C[C@@]12CCC(=O)[C@@](C)(CO)[C@H]1CC=C(CO)[C@H]2CCC1=CCOC1=O`, the IC50 with RAW264.7 worked out at 71.3 µM. Moreover, in series [1], the viability at 24 h, 100 µM turned out to be 104%.
